Experimental data as given in paper PMC9405973, “Altered Conformational Landscape upon Sensing Guanine Nucleotides in a Disease Mutant of Elongation Factor-like 1 (EFL1) GTPase” (Biomolecules, 2022).
Values joined by “and” are separate entries in the source; they are usually repeats but may differ in a detail not shown here. Equal entries are not always repeated.

Biological target: T1, Efl1 R1086Q (Saccharomyces cerevisiae, UniProt P53893, R1086Q)
T1 construct: made in house; host or cells: Saccharomyces cerevisiae
Assay: Isothermal titration calorimetry (ITC): binding of guanine nucleotides or Sdo1 to Efl1 R1086Q
Conditions: for Kd / -TΔSb / ΔGb / ΔHb / ΔCpb: guanine nucleotide; for ΔCpb: from ΔHb at 25–35 °C
Method: All calorimetric measurements were carried out using MicroCal^TM iTC200 System (GE Healthcare, Northampton, MA, USA) in a temperature range of 25–35 °C. Experiments were performed in a buffer consisting of 50 mM Tris-HCl (pH 8.0), 150 mM NaCl, 100 µM DTT, and 5% glycerol. In the titrations with Mg^2+-bound nucleotides, both the ligand and protein solutions contained 5 mM MgCl2. In the case of titrations with Mg^2+-free nucleotide, both the ligand and protein solutions were supplemented with 2 mM EDTA to sequester any residual trace of metal ions in solution. Protein samples and ligands were prepared in the exact same buffer prior to each titration. Protein concentration in the cell comprised 30–50 µM GTPase, while the ligand concentration in the syringe was 2–3 mM for GTP, MgGTP, GDP, and MgGDP. To ensure measuring the interaction of the complex Efl1 R1086Q•Sdo1 with the nucleotide, an eight-fold concentration excess of Sdo1 was used compared with that of the enzyme. […] The titration schedule consisted of 15–20 consecutive injections of the ligand with 5 min intervals between injections and a stirring rate of 700 rpm. The dilution heat of the ligand was obtained by adding the ligand to a buffer solution under identical conditions and with the same injection schedule used for the protein sample. All samples were degassed for 10 min prior to the experiment.
The binding isotherms obtained for the isolated GTPase in the presence of Mg(II) were analysed using a ternary model in which the protein can bind to the free nucleotide (G(D)TP) or that bound to one magnesium ion (MgG(D)TP); additionally, GTP may also exist in the form of Mg2GTP, which is not recognised by the protein. The derivation of this coupled-equilibria model can be reviewed in [6, 31]. The binding constant (Kb), the enthalpy change (∆Hb), and the stoichiometry (n) were obtained with the non-linear routines implemented in Origin 5.0 (OriginLab, Co., Northampton, MA, USA) using a one-binding-site model as described in [32, 33]. The heterotropic cooperativity for the binding of guanine nucleotides and Sdo1 to Efl1 R1086Q were calculated as previously described in [6, 32]. The cooperative effects of Mg(II) on the binding of guanine nucleotides to Efl1 R1086Q alone and bound to Sdo1 were calculated as follows:κ = KE-MG/KE-G κ = KES-MG/KES-G Δh = ΔHE-MG − ΔHE-G Δh = ΔHES-MG − ΔHES-G where subscripts E-MG and E-G stand for the association of the metal-bound and metal-free guanine nucleotide with mutant Efl1, respectively. Corresponding expressions applied to the heterotropic cooperativity of the binding of nucleotides to the preformed complex, Efl1•Sdo1 (ES).
The impact of Sdo1 on the binding of Efl1 R1086Q to guanine nucleotides in the presence of magnesium ions is contained in KES-MG and ΔHES-MG relative to the KE-S and ΔHE-S values; analogous ratios report the effects in the absence of Mg(II):κ = KES-MG/KE-S κ = KES-G/KE-G Δh = ΔHES-MG − ΔHE-S Δh = ΔHES-G − ΔHE-G
The corresponding cooperative entropy change was calculated as:TΔs = Δh − Δg = Δh + RTlnκ
The detailed methodology and equations to compute the changes in the accessible surface area (∆ASA) of the GTPase upon binding to nucleotides and the ∆S energetic-based parameters are reported in [6]. Briefly, the water-accessible areas (ASAs) were computed using programme NACCESS, while the changes in accessible surface area (ΔASA) upon the formation of each GTPase–nucleotide complex were estimated considering the difference between the complex and the sum of the free interacting partners. The calculated polar (ΔASAp) and apolar (ΔASAap) area changes were subsequently used to estimate the free molecular partners. […]

[1] = Effect of Mg^2+, Efl1 R1086Q − Sdo1, 25 °C
[2] = Effect of Mg^2+, Efl1 R1086Q − Sdo1, 30 °C
[3] = Effect of Mg^2+, Efl1 R1086Q − Sdo1, 35 °C
[4] = Effect of Sdo1, Efl1 R1086Q + Mg^2+, 25 °C
[5] = Effect of Sdo1, Efl1 R1086Q + Mg^2+, 30 °C
[6] = Effect of Sdo1, Efl1 R1086Q + Mg^2+, 35 °C
[7] = Effect of Sdo1, Efl1 R1086Q − Mg^2+, 25 °C
[8] = Effect of Sdo1, Efl1 R1086Q − Mg^2+, 30 °C
[9] = Effect of Sdo1, Efl1 R1086Q − Mg^2+, 35 °C

T1 sequence (P53893 whole entry R1086Q): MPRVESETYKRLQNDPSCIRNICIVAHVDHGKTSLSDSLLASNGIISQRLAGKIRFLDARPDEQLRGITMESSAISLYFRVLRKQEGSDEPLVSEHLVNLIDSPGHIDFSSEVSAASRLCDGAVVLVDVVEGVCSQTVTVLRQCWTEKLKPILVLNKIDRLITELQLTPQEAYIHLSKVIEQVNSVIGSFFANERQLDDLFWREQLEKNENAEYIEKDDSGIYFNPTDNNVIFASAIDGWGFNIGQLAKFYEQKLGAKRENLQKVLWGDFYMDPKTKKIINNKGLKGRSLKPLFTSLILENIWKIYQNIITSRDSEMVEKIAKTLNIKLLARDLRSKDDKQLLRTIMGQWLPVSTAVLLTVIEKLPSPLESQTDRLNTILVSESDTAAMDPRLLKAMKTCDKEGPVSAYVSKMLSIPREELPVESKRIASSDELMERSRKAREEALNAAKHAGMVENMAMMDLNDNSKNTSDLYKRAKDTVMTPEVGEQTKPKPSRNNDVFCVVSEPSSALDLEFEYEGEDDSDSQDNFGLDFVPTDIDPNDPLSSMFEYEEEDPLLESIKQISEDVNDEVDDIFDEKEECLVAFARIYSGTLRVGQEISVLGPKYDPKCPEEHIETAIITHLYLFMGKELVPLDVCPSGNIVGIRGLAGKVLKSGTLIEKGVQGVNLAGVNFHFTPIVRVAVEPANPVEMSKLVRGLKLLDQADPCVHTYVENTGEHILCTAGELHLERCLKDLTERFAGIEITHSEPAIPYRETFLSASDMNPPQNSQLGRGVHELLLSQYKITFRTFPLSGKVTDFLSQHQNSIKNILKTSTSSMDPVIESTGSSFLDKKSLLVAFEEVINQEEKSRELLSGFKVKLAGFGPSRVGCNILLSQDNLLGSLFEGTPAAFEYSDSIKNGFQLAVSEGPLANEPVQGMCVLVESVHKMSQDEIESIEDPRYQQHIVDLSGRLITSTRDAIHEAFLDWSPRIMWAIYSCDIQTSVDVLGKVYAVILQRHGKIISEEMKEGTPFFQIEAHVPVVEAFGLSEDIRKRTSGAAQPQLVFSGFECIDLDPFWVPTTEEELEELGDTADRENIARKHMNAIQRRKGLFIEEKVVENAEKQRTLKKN

Nc1nc2c(ncn2[C@@H]2O[C@H](COP(=O)(O)OP(=O)(O)O)[C@@H](O)[C@H]2O)c(=O)[nH]1 [GDP]
increase in binding enthalpy as temperature increased (25 °C to 35 °C): ~ 6 kcal mol^−1 | Nconfres (number of residues changing conformation, absolute value) (+Mg^2+, 30 °C): 21 | Nconfrotb (number of routable bonds changing conformation, absolute value) (+Mg^2+, 30 °C): 30 | ΔCpconf (+Mg^2+, 30 °C): −222 cal mol^−1 K^−1 | ΔSb (+Mg^2+, 30 °C): 7 cal mol^−1 K^−1 | ΔSconf (+Mg^2+, 30 °C): −49 cal mol^−1 K^−1 | ΔSsolv (+Mg^2+, 30 °C): 65 cal mol^−1 K^−1 | −ΔASAconf (+Mg^2+, 30 °C): 996 Å^2 | -TΔs [1]: -2.3 kcal/mol | Δg [1]: 1.3 kcal/mol | Δh [1]: 3.5 kcal/mol | κ (heterotropic cooperativity) [1]: 0.1 | -TΔs [2]: -2.4 kcal/mol | Δg [2]: 1.2 kcal/mol | Δh [2]: 3.6 kcal/mol | κ (heterotropic cooperativity) [2]: 0.1 | -TΔs [3]: -2.1 kcal/mol | Δg [3]: 1.2 kcal/mol | Δh [3]: 3.3 kcal/mol | κ (heterotropic cooperativity) [3]: 0.2 | -TΔs [4]: -1.6 kcal/mol | Δg [4]: -0.6 kcal/mol | Δh [4]: 1.0 kcal/mol | κ (heterotropic cooperativity) [4]: 2.7 | -TΔs [5]: -1.1 kcal/mol | Δg [5]: -0.8 kcal/mol | Δh [5]: 0.3 kcal/mol | κ (heterotropic cooperativity) [5]: 3.6 | -TΔs [6]: -1.4 kcal/mol | Δg [6]: -0.9 kcal/mol | Δh [6]: 0.5 kcal/mol | κ (heterotropic cooperativity) [6]: 4.6 | -TΔs [7]: -3.1 kcal/mol | Δg [7]: 1.06 kcal/mol | Δh [7]: 4.2 kcal/mol | κ (heterotropic cooperativity) [7]: 0.2 | -TΔs [8]: -1.2 kcal/mol | Δg [8]: 1.2 kcal/mol | Δh [8]: 2.3 kcal/mol | κ (heterotropic cooperativity) [8]: 0.1 | Δg [9]: 1.3 kcal/mol | Δh [9]: 1.2 kcal/mol | κ (heterotropic cooperativity) [9]: 0.1 | Kd (+Mg^2+, 25 °C): 24 ± 3 µM | Kd (+Mg^2+, 30 °C): 28 ± 6 µM | Kd (+Mg^2+, 35 °C): 29 ± 8 µM | Kd (−Mg^2+, 25 °C): 3 ± 0.4 µM | Kd (−Mg^2+, 30 °C): 4 ± 0.6 µM | Kd (−Mg^2+, 35 °C): 4 ± 0.6 µM | -TΔSb (+Mg^2+, 25 °C): -3.19 kcal/mol | ΔGb (+Mg^2+, 25 °C): -6.29 kcal/mol | ΔHb (+Mg^2+, 25 °C): -3.1 ± 0.1 kcal/mol | -TΔSb (+Mg^2+, 30 °C): -2.20 kcal/mol | ΔGb (+Mg^2+, 30 °C): -6.30 kcal/mol | ΔHb (+Mg^2+, 30 °C): -4.1 ± 0.6 kcal/mol | -TΔSb (+Mg^2+, 35 °C): -0.59 kcal/mol | ΔGb (+Mg^2+, 35 °C): -6.39 kcal/mol | ΔHb (+Mg^2+, 35 °C): -5.8 ± 0.2 kcal/mol | ΔCpb (+Mg^2+): −270 ± 40 cal mol^−1 K^−1 and −270 cal mol^−1 K^−1 | -TΔSb (−Mg^2+, 25 °C): -0.94 kcal/mol | ΔGb (−Mg^2+, 25 °C): -7.54 kcal/mol | ΔHb (−Mg^2+, 25 °C): -6.6 ± 0.2 kcal/mol | -TΔSb (−Mg^2+, 30 °C): 0.22 kcal/mol | ΔGb (−Mg^2+, 30 °C): -7.47 kcal/mol | ΔHb (−Mg^2+, 30 °C): -7.7 ± 0.3 kcal/mol | -TΔSb (−Mg^2+, 35 °C): 1.55 kcal/mol | ΔGb (−Mg^2+, 35 °C): -7.55 kcal/mol | ΔHb (−Mg^2+, 35 °C): -9.1 ± 0.3 kcal/mol | ΔCpb (−Mg^2+): −250 cal mol^−1 K^−1 and −250 ± 17 cal mol^−1 K^−1 | surface buried by the conformational change (refers to Table 3, 30 °C): ~ 1000 Å | Nconfres (number of residues changing conformation, absolute value) (−Mg^2+, 30 °C): 21 | ΔCpconf (−Mg^2+, 30 °C): −220 cal mol^−1 K^−1 | ΔSb (−Mg^2+, 30 °C): −1 cal mol^−1 K^−1 | ΔSconf (−Mg^2+, 30 °C): −53 cal mol^−1 K^−1 | ΔSsolv (−Mg^2+, 30 °C): 60 cal mol^−1 K^−1 | −ΔASAconf (−Mg^2+, 30 °C): 987 Å^2
